# Reference: patent US4871527A, “No-carrier-added [^18 F]-N-fluoroalkylspiroperidols” (The United States of America as represented by the United …, priority 1987, dated 1989)
# “Also recorded” adds a separate entry of the source. Read-outs that look alike come from different tables or passages of the source.
# Legend:
# dopamine receptors [1] = experiment: Affinity for dopamine receptors; format: binding
# dopamine receptors [2] = experiment: PET baboon studies: brain kinetics in striatum and cerebellum
# Excerpt: A young adult (11 kg) female baboon (Papio anubis) was anesthetized initially with ketamine and subsequently maintained under halothane/nitrous oxide anesthesia for two PETT studies as described in the Arnett et al. paper referenced in Example 7. […] PET scans were made continually for 4 hr from the time of radioisotope injection. Regions of interest corresponding to the striata and cerebellum were selected.
# dopamine receptors [3] = experiment: Uptake in the brain and radiation burden (general statement); conditions: in vivo
# [4] = Tissue distribution of NCA N-(3-[^18 F]fluoropropyl)spiroperidol in mice after butaclamol pretreatment; format: in vivo, female albino mice (BNL strain)
# Method: Tissue Distribution of NCA N-(3-[^ 18 F]fluoropropyl)spiroperidol in Mice
# Female albino mice (BNL strain), 22-27 g, were injected in a lateral tail vein with 24-85 μCi of N-(3-[^18 F]fluoropropyl)spiroperidol in 100 μl of isotonic saline solution.
# Mice were pretreated with 2 mg/kg, i.v., of either (-)butaclamol (-), or
# (+)butaclamol (+). The mice were killed by cervical dislocation and
# decapitation at 5, 60 and 120 min after injection. The dissected tissues
# were blotted to remove adhering blood and placed in tared counting vials.
# A sample of blood was obtained from the trunk immediately after
# decapitation. The entire tail was counted to verify the patency of the
# tail vein injection. All samples were counted and weighed, and the
# activity expressed as percent of injected dose per organ or percent of
# injected dose per gram of tissue.
# [5] = Metabolic stability of N-(3-[^18 F]fluoropropyl)spiroperidol in mouse brains; format: in vivo, female albino mice (BNL strain); conditions: for Percent Recovery of Total ^18 F Applied to C-18 Sep-Pak, H2O Eluate / Percent Recovery of Total ^18 F Applied to C-18 Sep-Pak, MeOH Eluate / Percent Recovery of Total ^18 F Applied to C-18 Sep-Pak, NaOH Eluate / Percent of ^18 F in MeOH as N-(3-[^18 F]fluoropropyl)spiroperidol / remaining at 1 h: 1 hr; for remaining at 1 h: mouse, brain, iv, read-out: Percent of Unchanged N-(3-[^18 F]fluoropropyl)spiroperidol
# Method: Metabolic Stability of N-(3-[^18 F]fluoropropyl)spiroperidol in Mouse Brains
# Three female albino mice (BNL strain), 27-30 g, were injected in a lateral tail vein with […] of N-(3-[^18 F]fluoropropyl)spiroperidol in 100 μl of isotonic saline solution. At 1 hr after injection, the mice were killed by cervical dislocation. The brain was rapidly removed, homogenized either in a mixture of 2 ml of CH3 OH and 4 ml of 0.4M HClO4, or in 2 ml of CH3 OH alone. The samples were centrifuged,and the CH3 OH fractions (or the entire supernants in the case of CH3 OH alone) were analyzed for unchanged N-(3-[^18 F]fluoropropyl)spiroperidol [Arnett et al., Life Sci., 36, 1359-1366 (1985)] and analyzed by HPLC (C18 column, 4.5×250 mm, CH3 OH:0.2N NH4 CO2 H (90:10), 1.5 ml/min).
# ^a The precipitates were separated without further washings.
# ^b The precipitates were separated and washed with MeOH--HClO4
# [6] = Baboon plasma analyses: blood kinetics and metabolism; format: in vivo, baboon (Papio anubis)
# Method: Baboon Plasma Analyses: Blood was sampled from the femoral artery at initial intervals of 5 sec. Aliquots of plasma were counted to determine the total plasma radioactivity clearance curve. Representative samples (Table 6) were also analyzed for unchanged N-(3-[^18 F]fluoropropyl)spiroperidol.
# The baboon blood total plasma radioactivity clearance curve following injection of NCA N-(3-[^18 F]fluoropropyl)spiroperidol is depicted in FIG. 1. The blood clearance was very rapid. The appearance of metabolites in the blood was also rapid (Table 6). At 10 min after injection 68% of plasma radioactivity was due to unchanged N-(3-[^18 F]fluoropropyl)spiroperidol.
# *Plasma samples were extracted with MeOH--0.4M HClO4
# [7] = baboon, (-)-butaclamol pretreatment
# [8] = (+)-butaclamol pretreatment, 5 min
# [9] = (+)-butaclamol pretreatment, 60 min
# [10] = (+)-butaclamol pretreatment, 120 min
# [11] = (-)-butaclamol pretreatment, 5 min
# [12] = (-)-butaclamol pretreatment, 60 min
# [13] = (-)-butaclamol pretreatment, 120 min
# [14] = mouse brain, 2X MeOH-HClO4 (washed again)
# [15] = mouse brain, MeOH-HClO4 extraction, no further washings
# [16] = baboon plasma, 0.67 min after injection
# [17] = baboon plasma, 4.0 min after injection
# [18] = baboon plasma, 10 min after injection
# [19] = baboon plasma, 30 min after injection
# [20] = baboon plasma, 120 min after injection
structure (smiles),measurement,setting,value
O=C(CCCN1CCC2(CC1)C(=O)N(CCC[18F])CN2c1ccccc1)c1ccc(F)cc1 [N-(3-[^18 F]fluoropropyl)spiroperidol],Affinity for dopamine receptors,dopamine receptors [1],extremely high affinity for dopamine receptors
same,"Striatal accumulation of radioactivity, blocking by (+)-butaclamol","dopamine receptors [2]; (+)-butaclamol pretreatment, species not given",blocked stereoselectively by (+)-butaclamol
same,Radioactivity in the cerebellum after first few minutes,dopamine receptors [2]; [7],declined rapidly in the cerebellum
same,Radioactivity in the striatum after first few minutes,dopamine receptors [2]; [7],increasing for up to 4 hrs in the striatum
same,Influx into striatum and cerebellum,"dopamine receptors [2]; baboon, (-)-butaclamol pretreatment, first few minutes",nearly equal for the first few minutes
same,Radiation burden,dopamine receptors [3],reduced radiation burden
same,Uptake and retention in the brain,dopamine receptors [3],enhanced uptake and retention in the brain
same,"Cerebellum, % injected dose",[4]; [8],0.11 (0.08-0.14) %/organ
same,"Striatum, % injected dose",[4]; [8],0.051 %/organ
same,"Whole Brain, % injected dose",[4]; [8],0.79 (0.57-1.00) %/organ
same,"Cerebellum, % injected dose",[4]; [9],0.019 (0.013-0.025) %/organ
same,"Striatum, % injected dose",[4]; [9],0.013 (0.009-0.018) %/organ
same,"Whole Brain, % injected dose",[4]; [9],0.16 %/organ
same,"Cerebellum, % injected dose",[4]; [10],0.012 %/organ
same,"Striatum, % injected dose",[4]; [10],0.010 %/organ
same,"Whole Brain, % injected dose",[4]; [10],0.097 %/organ
same,"Cerebellum, % injected dose",[4]; [11],0.24 (0.13-0.45) %/organ
same,"Striatum, % injected dose",[4]; [11],0.084 (0.068-0.099) %/organ
same,"Whole Brain, % injected dose",[4]; [11],1.1 (0.9-1.4) %/organ
same,"Cerebellum, % injected dose",[4]; [12],0.040 (0.032-0.048) %/organ
same,"Striatum, % injected dose",[4]; [12],0.089 %/organ
same,"Whole Brain, % injected dose",[4]; [12],0.67 (0.59-0.77) %/organ
same,"Cerebellum, % injected dose",[4]; [13],0.028 (0.023-0.032) %/organ
same,"Striatum, % injected dose",[4]; [13],0.14 (0.11-0.17) %/organ
same,"Whole Brain, % injected dose",[4]; [13],0.56 (0.44-0.63) %/organ
same,"Percent Recovery of Total ^18 F Applied to C-18 Sep-Pak, H2O Eluate",[5]; [14],11%
same,"Percent Recovery of Total ^18 F Applied to C-18 Sep-Pak, MeOH Eluate",[5]; [14],81%
same,"Percent Recovery of Total ^18 F Applied to C-18 Sep-Pak, NaOH Eluate",[5]; [14],3.1%
same,Percent of ^18 F in MeOH as N-(3-[^18 F]fluoropropyl)spiroperidol,[5]; [14],94%
same,"Percent Recovery of Total ^18 F Applied to C-18 Sep-Pak, MeOH Eluate","[5]; mouse brain, MeOH Alone",65%
same,Percent of ^18 F in MeOH as N-(3-[^18 F]fluoropropyl)spiroperidol,"[5]; mouse brain, MeOH Alone",97%
same,"Percent Recovery of Total ^18 F Applied to C-18 Sep-Pak, H2O Eluate",[5]; [15],4.2%
same,"Percent Recovery of Total ^18 F Applied to C-18 Sep-Pak, MeOH Eluate",[5]; [15],73%
same,"Percent Recovery of Total ^18 F Applied to C-18 Sep-Pak, NaOH Eluate",[5]; [15],1.3%
same,Percent of ^18 F in MeOH as N-(3-[^18 F]fluoropropyl)spiroperidol,[5]; [15],94%
same,Stability to metabolic transformation in the central nervous system,"[5]; mouse brain, one hour",very stable to metabolic transformation in the central nervous system
same,remaining at 1 h,[5]; 2X MeOH-HClO4 (washed again),76%
same,remaining at 1 h,[5]; MeOH Alone,62%
same,remaining at 1 h,"[5]; MeOH-HClO4 extraction, no further washings",69%
same,Blood / total plasma radioactivity clearance,[6]; baboon,very rapid; also recorded: rapid
same,Total recovery of ^18 F applied to C-18 Sep-pak,[6]; baboon plasma samples,90-103%
same,"% Recovery of Total ^18 F Applied to C-18 Sep-Pak, H2O Eluate",[6]; [16],8%
same,"% Recovery of Total ^18 F Applied to C-18 Sep-Pak, MeOH Eluate",[6]; [16],93%
same,"% Recovery of Total ^18 F Applied to C-18 Sep-Pak, NaOH Eluate",[6]; [16],2%
same,% of ^18 F in MeOH as N-(3-[^18 F]fluoropropyl)spiroperidol,[6]; [16],98%
same,"% Recovery of Total ^18 F Applied to C-18 Sep-Pak, H2O Eluate",[6]; [17],10%
same,"% Recovery of Total ^18 F Applied to C-18 Sep-Pak, MeOH Eluate",[6]; [17],83%
same,"% Recovery of Total ^18 F Applied to C-18 Sep-Pak, NaOH Eluate",[6]; [17],4%
same,% of ^18 F in MeOH as N-(3-[^18 F]fluoropropyl)spiroperidol,[6]; [17],99%
same,"% Recovery of Total ^18 F Applied to C-18 Sep-Pak, H2O Eluate",[6]; [18],17%
same,"% Recovery of Total ^18 F Applied to C-18 Sep-Pak, MeOH Eluate",[6]; [18],71%
same,"% Recovery of Total ^18 F Applied to C-18 Sep-Pak, NaOH Eluate",[6]; [18],6%
same,% of ^18 F in MeOH as N-(3-[^18 F]fluoropropyl)spiroperidol,[6]; [18],96%
same,"% Recovery of Total ^18 F Applied to C-18 Sep-Pak, H2O Eluate",[6]; [19],31%
same,"% Recovery of Total ^18 F Applied to C-18 Sep-Pak, MeOH Eluate",[6]; [19],45%
same,"% Recovery of Total ^18 F Applied to C-18 Sep-Pak, NaOH Eluate",[6]; [19],14%
same,% of ^18 F in MeOH as N-(3-[^18 F]fluoropropyl)spiroperidol,[6]; [19],90%
same,"% Recovery of Total ^18 F Applied to C-18 Sep-Pak, H2O Eluate",[6]; [20],49%
same,"% Recovery of Total ^18 F Applied to C-18 Sep-Pak, MeOH Eluate",[6]; [20],30%
same,"% Recovery of Total ^18 F Applied to C-18 Sep-Pak, NaOH Eluate",[6]; [20],18%
same,% of ^18 F in MeOH as N-(3-[^18 F]fluoropropyl)spiroperidol,[6]; [20],74%
same,Appearance of metabolites in the blood,[6]; in vivo,rapid
same,remaining at 40 s,"[6]; in vivo, iv, baboon plasma, 0.67 min after injection, read-out: % of Unchanged N-(3-[^18 F]fluoropropyl)spiroperidol",91%
same,remaining at 4 min,"[6]; in vivo, iv, baboon plasma, 4.0 min after injection, read-out: % of Unchanged N-(3-[^18 F]fluoropropyl)spiroperidol",82%
same,remaining at 10 min,"[6]; in vivo, iv, baboon plasma, 10 min after injection, read-out: % of Unchanged N-(3-[^18 F]fluoropropyl)spiroperidol",68%
same,remaining at 0.5 h,"[6]; in vivo, iv, baboon plasma, 30 min after injection, read-out: % of Unchanged N-(3-[^18 F]fluoropropyl)spiroperidol",41%
same,remaining at 2 h,"[6]; in vivo, iv, baboon plasma, 120 min after injection, read-out: % of Unchanged N-(3-[^18 F]fluoropropyl)spiroperidol",22%
